Assay results taken from ChEMBL document CHEMBL4673405, “Novel Linker Variants of Antileishmanial/Antitubercular 7-Substituted 2-Nitroimidazooxazines Offer Enhanced Solubility” (ACS Med Chem Lett, 2021).
Values after ≈ are worked out from the molar mass of the structure shown.

Columns and labels:
MRC5 = test: Cytotoxicity against human MRC5 cells assessed as reduction in cell viability measured after 72 hrs by resazurin assay; format: ADME, cell-based; conditions: MRC5, 72 h
Leishmania infantum = test: Antileishmanial activity against Leishmania infantum MHOM/MA(BE)/67 amastigotes infected in mouse peritoneal macrophages incubated for 5 days by Giemsa staining based assay; format: functional, organism-based; conditions: MHOM/MA(BE)/67, Peritoneal macrophage, 120 h
[1] = Microsomal stability in human liver microsomes assessed as parent compound remaining at 1 uM measured up to 60 mins in presence of NADPH by LC-MS/MS analysis
[2] = Aqueous solubility of the compound at pH 7 sonicated for 15 mins by HPLC analysis; conditions: aqueous medium
[3] = Microsomal stability in mouse liver microsomes assessed as parent compound remaining at 1 uM measured up to 60 mins in presence of NADPH by LC-MS/MS analysis
[4] = Solubility of the compound in 0.1 M HCl at pH 1 sonicated for 15 mins by HPLC analysis; format: physicochemical
in vivo [5] = conditions: BALB/c, mouse, po, 25 mg/kg
in vivo [6] = conditions: BALB/c, mouse, po, 25 mg/kg; remark: listed apart in the source
[7] = Initial plasma concentration in BALB/c mouse at 1 mg/kg, iv measured up to 24 hrs by LC-MS/MS analysis
in vivo [8] = conditions: BALB/c, mouse, po, 25 mg/kg; remark: listed apart in the source
Description: AUClast in BALB/c mouse at 25 mg/kg, po measured up to 24 hrs by LC-MS/MS analysis

[9] = Half life in BALB/c mouse at 1 mg/kg, iv measured up to 24 hrs by LC-MS/MS analysis; conditions: in vivo
in vivo [10] = conditions: BALB/c, mouse, po, 25 mg/kg; remark: listed apart in the source
[11] = Half life in BALB/c mouse at 25 mg/kg, po measured up to 24 hrs by LC-MS/MS analysis; format: ADME, organism-based; conditions: in vivo
[12] = Volume of distribution at steady state in BALB/c mouse at 1 mg/kg, iv measured up to 24 hrs by LC-MS/MS analysis; conditions: in vivo
[13] = Clearance in BALB/c mouse at 1 mg/kg, iv measured up to 24 hrs by LC-MS/MS analysis; conditions: in vivo
[14] = AUClast in BALB/c mouse at 1 mg/kg, iv measured up to 24 hrs by LC-MS/MS analysis; conditions: in vivo
Leishmania donovani = test: Antileishmanial activity against Leishmania donovani MHOM/ET/67/HU3 amastigotes infected in BALB/c mouse model of visceral leishmaniasis assessed as reduction in parasite burden in liver at 50 mg/kg, po administered once daily for 5 consecutive days starting after 7 days post-infection by microscopic analysis relative to control; format: functional; parameters: scale not given: the % may be the effect or the level left; conditions: time 5 day

Row | IC50 (Leishmania infantum) | solubility at 0.25 h [2] | SMILES | IC50 (MRC5) | other results
1 | 640 nM | – | CC1(COC(=O)Nc2ccccc2OC(F)(F)F)CCn2cc([N+](=O)[O-])nc2O1 (stereo unspecified) | ≥ 40 µM | –
2 | 1300 nM | 14 µg/mL (≈ 35 µM) | CC1(CNC(=O)c2cccc(OC(F)(F)F)c2)CCn2cc([N+](=O)[O-])nc2O1 (stereo unspecified) | ≥ 40 µM | remaining at 1 h, 1 µM [1]: 58%; remaining at 1 h, 1 µM [3]: 36%
3 | 160 nM | 28 µg/mL (≈ 65.1 µM) | CC1(CNC(=O)OCc2ccc(OC(F)(F)F)cc2)CCn2cc([N+](=O)[O-])nc2O1 (stereo unspecified) | ≥ 40 µM | –
4 | 1500 nM | – | O=C(NCC1CCn2cc([N+](=O)[O-])nc2O1)c1ccc(OC(F)(F)F)cc1 (stereo unspecified) | ≥ 40 µM | –
5 | 130 nM | 124 µg/mL (≈ 321 µM) | CC1(CNCc2ccc(OC(F)(F)F)cc2)CCn2cc([N+](=O)[O-])nc2O1 (stereo unspecified) | ≥ 40 µM | solubility at 0.25 h [4]: 33 mg/mL (≈ 85400 µM)
6 | 1800 nM | – | CC1(CNC(=O)NCc2ccc(OC(F)(F)F)cc2)CCn2cc([N+](=O)[O-])nc2O1 (stereo unspecified) | ≥ 40 µM | –
7 | 490 nM | – | CC1(COCC(=O)Nc2ccc(OC(F)(F)F)cc2)CCn2cc([N+](=O)[O-])nc2O1 (stereo unspecified) | ≥ 40 µM | –
8 | 9900 nM | – | CC1(CNC(=O)c2ccccc2OC(F)(F)F)CCn2cc([N+](=O)[O-])nc2O1 (stereo unspecified) | ≥ 40 µM | –
9 | 2000 nM | – | CC1(CNS(=O)(=O)c2cccc(OC(F)(F)F)c2)CCn2cc([N+](=O)[O-])nc2O1 (stereo unspecified) | ≥ 40 µM | –
10 | 1400 nM | 78 µg/mL (≈ 195 µM) | CC1(CNC(=O)c2ccc(OC(F)(F)F)cc2)CCn2cc([N+](=O)[O-])nc2O1 (stereo unspecified) | ≥ 40 µM | Activity (Leishmania donovani): 71%
11 | 320 nM | 117 µg/mL (≈ 272 µM) | CC1(COC(=O)NCc2ccc(OC(F)(F)F)cc2)CCn2cc([N+](=O)[O-])nc2O1 (stereo unspecified) | ≥ 40 µM | –

Second part, the compound before the results:

Row | SMILES | IC50 (Leishmania infantum) | solubility at 0.25 h [2] | IC50 (MRC5) | other results
12 | CC1(COC(=O)N(Cc2ccc(OC(F)(F)F)cc2)C(=O)NCc2ccc(OC(F)(F)F)cc2)CCn2cc([N+](=O)[O-])nc2O1 (stereo unspecified) | 1300 nM | – | ≥ 40 µM | –
13 | O=C(NCC1CCn2cc([N+](=O)[O-])nc2O1)Nc1ccc(OC(F)(F)F)cc1 (stereo unspecified) | 3300 nM | – | ≥ 40 µM | –
14 | O=C(NCc1ccc(OC(F)(F)F)cc1)OCC1CCn2cc([N+](=O)[O-])nc2O1 (stereo unspecified) | 180 nM | – | ≥ 40 µM | –
15 | CC1(COc2ccc(F)cc2)CCn2cc([N+](=O)[O-])nc2O1 (stereo unspecified) | 450 nM | – | ≥ 40 µM | –
16 | O=C(Nc1ccc(OC(F)(F)F)cc1)OCC1CCn2cc([N+](=O)[O-])nc2O1 (stereo unspecified) | 360 nM | 4.5 µg/mL (≈ 11.2 µM) | ≥ 40 µM | bioavailability at 24 h (in vivo [5]): 100%; Cmax at 24 h (in vivo [6]): 9600 ng/mL; C0 at 24 h [7]: 740 ng/mL; AUC(0-t) at 24 h (in vivo [8]): 35400 ng·h/mL; half-life at 24 h [9]: 72 min; Tmax at 24 h (in vivo [10]): 1 h; half-life [11]: 96 min; Vd at 24 h [12]: 1.6 L/kg; clearance at 24 h [13]: 14 mL/min/kg; AUC(0-t) at 24 h [14]: 1170 ng·h/mL
17 | CC1(CNc2ccc(F)cc2)CCn2cc([N+](=O)[O-])nc2O1 (stereo unspecified) | 930 nM | – | ≥ 40 µM | –
18 | O=C(NCc1ccc(OC(F)(F)F)cc1)N(Cc1ccc(OC(F)(F)F)cc1)C(=O)OCC1CCn2cc([N+](=O)[O-])nc2O1 (stereo unspecified) | 790 nM | – | ≥ 40 µM | –
